In data set [1] the target is T1, human recombinant enteropeptidase (Homo sapiens, UniProt P98073).
T1 construct: purchased ITSI‐Biosciences (Johnstown, PA)
As to the kind of experiment: Kinetic analysis of enteropeptidase inhibition (progress curves, k obs). Conditions: for k inact/K I: 5FAM‐labeled substrate 0.7 μmol/L, corrected for [S]/Km. The format is biochemical. How it is done:
For kinetic analysis, compounds were dissolved in DMSO and then diluted in the enteropeptidase assay buffer. Five microliters of compound solution was added to a 384‐well black plate followed by 5 μL of substrate solution [2.1 μmol/L 5FAM‐Abu‐Gly‐Asp‐Asp‐Asp‐Lys‐Ile‐Val‐Gly‐Gly‐Lys (CPQ2)‐Lys‐Lys‐NH2] and 5 μL of 24 mU/mL human recombinant enteropeptidase solution and mixed. The final concentration of substrate was 0.7 μmol/L, which is almost the same as the K m value. The fluorescence was measured every minute at an excitation wavelength of 485 nm and an emission wavelength of 520 nm using an EnVision multilabel plate reader. The progress curves were fitted to the following equation to determine the values for k obs, the apparent rate constant from initial rate v 0 to steady state rate v s:(1) F=vst+(v0-vs)(1-e^-kobst)/kobs+F0, where t is the time, F is the fluorescence, and F 0 is the fluorescence at time t = 0.
The k inact/K I,app value was determined as the slope of the [I] vs k obs plot, and the corrected k inact/K I value was also estimated according to the following equation:(2) kinact/KI,app=kinact/KI/(1+[S]/Km), where [I] is the concentration of inhibitor, [S] is the concentration of substrate, and K m is the Michaelis–Menten constant.

Data set [2] addresses T1, human recombinant enteropeptidase. As to the kind of experiment: Enteropeptidase enzyme assay (human recombinant enteropeptidase, FRET substrate). The format is biochemical. The conditions noted are these: 120‐minute incubation; read-out: IC50 (95% confidence intervals), human enteropeptidase activity. How it is done:
In the HTS, enzyme and substrate were dissolved in the enteropeptidase assay buffer [50 mmol/L Tricine, pH 8.0, 0.01% (w/v) Tween20, and 10 mmol/L CaCl2]. Twenty‐five nanoliters of compound solution dissolved in DMSO was added to a 1536‐well black plate, and then 2 μL of 90 mU/mL human recombinant enteropeptidase solution was added to the plate and incubated at room temperature for 60 minutes. Next, 2 μL of substrate solution [2.1 μmol/L QSY21‐Gly‐Asp‐Asp‐Asp‐Lys‐Ile‐Val‐Gly‐Gly‐Lys (Cy5)] was added to the plate and incubated at room temperature for 30 minutes. After incubation, 2 μL of 30 mmol/L H2SO4 solution was added to stop the reaction. The fluorescence was measured at an excitation wavelength of 620 nm and an emission wavelength of 685 nm by multilabel plate reader EnVision (PerkinElmer, Waltham, MA).
For kinetic analysis, compounds were dissolved in DMSO and then diluted in the enteropeptidase assay buffer. […] The fluorescence was measured every minute at an excitation wavelength of 485 nm and an emission wavelength of 520 nm using an EnVision multilabel plate reader. The progress curves were fitted to the following equation to determine the values for k obs, the apparent rate constant from initial rate v 0 to steady state rate v s:(1) F=vst+(v0-vs)(1-e^-kobst)/kobs+F0, where t is the time, F is the fluorescence, and F 0 is the fluorescence at time t = 0. […]

The nature of the next data set: Chemical stability. The format is physicochemical.
Data set [3] addresses T2, recombinant light chain of human enteropeptidase (Homo sapiens, UniProt P98073).
T2 construct: purchased ITSI‐Biosciences (Johnstown, PA)
As to the kind of experiment: Determination of K m value of enteropeptidase for substrates. Type of data set: biochemical. The conditions noted are these: Michaelis–Menten fit of initial velocities. The source says:
Enteropeptidase is produced as a proenteropeptidase in enterocytes, the activation of which requires digestion to a light chain and a heavy chain. The light chain contains the catalytic active site, whereas the disulfide‐linked heavy chain provides the anchor to the brush border membrane. Thus, we used recombinant light chain of human enteropeptidase to discover its inhibitors. To identify small‐molecule enteropeptidase inhibitors, we designed two specific dual‐labeled substrates and developed enzyme assay systems. In the assay, the energy of the donor of an uncleaved substrate is transferred to the proximal acceptor at the opposite side of the substrate. When protease cleaves the substrate, the pair separates and the donor no longer transfers its emission to the acceptor, which leads to an increase in the fluorescence intensity observed from the donor.15 Enteropeptidase activity was measured with our designed substrates, Cy5‐labeled (Figure 1C) and 5FAM‐labeled substrates (Figure 1E), and commercially available substrate, H‐Gly‐Asp‐Asp‐Asp‐Asp‐Lys‐βNA (GDDDDK‐βNA), naphthylamine (Figure 1A). In our assay system, the fluorescence signal from the enzyme reaction increased in a time‐dependent manner. […]

The target in the next data set is thrombin (Homo sapiens, UniProt P00734). As to the kind of experiment: Serine protease selectivity: thrombin. The format is biochemical. Conditions: at 10 μmol/L; read-out: inhibitory activity against thrombin.
For the next data set, the system named is chymotrypsin. As to the kind of experiment: Serine protease selectivity: chymotrypsin. Type of data set: biochemical. Conditions: at 10 μmol/L.
Another data set deals with plasma kallikrein (Homo sapiens, UniProt P03952). In words: Serine protease selectivity: plasma kallikrein (Panlabs Enzymatic Assay Services, Eurofins). Type of data set: biochemical.
Data set [4] in a line: Pharmacokinetic study in rats. Type of data set: in vivo, Sprague‐Dawley rats. The conditions noted are these: for AUC(0-t): read-out: AUC0–24 h. How it is done: Male Sprague‐Dawley rats were obtained from Charles River Laboratories Japan, Inc. (Yokohama, Japan). A pharmacokinetic study was conducted when the animals were 8 weeks old. For oral administration, SCO‐792 was suspended in a 0.5% (w/v) methylcellulose solution. For intravenous administration, SCO‐792 was dissolved in DMSO and added with saline to prepare a dosing formulation at a concentration of 0.2 mg/mL (DMSO:saline = 2:8 (v/v)). The oral dosing formulations were mixed well and given to fed‐male rats at single doses of 10 mg/5 ml/kg using polypropylene syringes with gavage needles. The intravenous dosing formulation was injected into the femoral vein of fed‐male rats at a dose of 0.2 mg/1 ml/kg using polypropylene syringes with needles under anesthesia with isoflurane. The blood was collected at the indicated time points, and the plasma concentrations of SCO‐792 were determined by high‐performance liquid chromatography/tandem mass spectrometry.

For the next data set, the target named is factor Xa (Homo sapiens, UniProt P00742). As to the kind of experiment: Serine protease selectivity: factor Xa. Type of data set: biochemical. Conditions: at 10 μmol/L; read-out: inhibitory activity against factor Xa.
In data set [5] the target is T1, human recombinant enteropeptidase. In words: Dissociation assay (rapid dilution). The format is biochemical. How it is done: For the dissociation assay, compounds were dissolved in DMSO and then diluted in the enteropeptidase assay buffer. Ten microliters of compound solution was added to a 96‐well plate, and then 10 μL of 100 mU/mL human recombinant enteropeptidase solution was added to the plate and incubated at room temperature for 120 minutes. The concentration of the compound was equal to 10‐fold of the IC50 value upon incubation for 120 minutes. After this incubation, 2 μL of an compound‐enzyme mixture was transferred to a 96‐well black plate, and then 200 μL of substrate solution [3 μmol/L 5FAM‐Abu‐Gly‐Asp‐Asp‐Asp‐Lys‐Ile‐Val‐Gly‐Gly‐Lys(CPQ2)‐Lys‐Lys‐NH2] was added to the well. By its rapid dilution, the concentration of the inhibitor dropped from 10‐fold above the IC50 to 10‐fold below it. The fluorescence was measured every […] at an excitation wavelength of 485 nm and an emission wavelength of 520 nm using an EnVision multilabel plate reader. The progress curves were fitted to the following equations to determine the values for k off and dissociation half‐life, t 1/2.(3) F=vst+((v0-vs)(1-e^-kofft))/koff+F0 (4) t1/2=ln(2)/koff

In data set [6] the test system is plasma branched‐chain amino acids (BCAA). As to the kind of experiment: Oral protein challenge in rats (plasma BCAA). Type of data set: in vivo, Sprague‐Dawley rats. Conditions: 10, 30 mg/kg oral, ≤4 hour prior to whey protein load 2.5 g/kg. On the procedure:
Male Sprague‐Dawley rats were obtained from CLEA Japan Inc. (Tokyo, Japan). Eight‐week‐old rats were randomized into three groups on the basis of body weight and body weight change before the experiment (n = 4). SCO‐792 (10, 30 mg/kg in a 0.5% (w/v) methylcellulose solution) was then orally administered 1, 2, 4, and 6 hours before an oral whey protein load (2.5 g/kg; SAVAS whey protein 100, Meiji, Japan), and blood samples were collected at indicated time points for the measurement of plasma branched‐chain amino acids (BCAA).
Plasma BCAA concentration was measured using an enzymatic spectrophotometric assay as described by Beckett.14 Briefly, bacterial leucine dehydrogenase was used to catalyze the oxidation of BCAA, and the production of NADH was measured using a spectrophotometer (excitation 355 nm, emission 460 nm). L‐leucine was used to generate a standard curve to determine sample concentrations.

Another data set addresses DPP‐4 (Homo sapiens, UniProt P27487). As to the kind of experiment: Serine protease selectivity: DPP‐4. Type of data set: biochemical. Conditions: at 10 μmol/L; read-out: inhibitory activity against DPP‐4.
In another data set the target is T3, factor XIIa (Homo sapiens, UniProt P00748).
T3 sequence (P00748 373-615 limits assumed): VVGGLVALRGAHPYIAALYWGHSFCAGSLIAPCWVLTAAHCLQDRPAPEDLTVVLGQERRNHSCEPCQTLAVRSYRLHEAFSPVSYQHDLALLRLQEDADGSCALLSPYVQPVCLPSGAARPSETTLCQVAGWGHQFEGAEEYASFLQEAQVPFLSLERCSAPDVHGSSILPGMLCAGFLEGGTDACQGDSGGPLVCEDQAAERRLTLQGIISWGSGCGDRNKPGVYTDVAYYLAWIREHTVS
In words: Serine protease selectivity: factor XIIa. Conditions: at 10 μmol/L; read-out: inhibitory activity against factor XIIa. Type of data set: biochemical.

The target in another data set is plasmin (Homo sapiens, UniProt P00747). As to the kind of experiment: Serine protease selectivity: plasmin (Panlabs Enzymatic Assay Services, Eurofins). The format is biochemical.
The mark [7] stands for this setting: male, Sprague-Dawley, rat, in vivo, intravenous, 0.2 mg/kg, mean ± SD (n = 3).
The mark [8] stands for this setting: male, Sprague-Dawley, rat, in vivo, oral, 10 mg/kg, mean ± SD (n = 3).
The mark [9] stands for this setting: 120 min preincubation, rapid dilution.

Read-outs that look alike come from different tables or passages of the source. *: point of attachment. βNA = c1ccc2cc(N*)ccc2c1 Some results are limits rather than exact numbers.

T1 sequence (P98073 785-1019 limits assumed): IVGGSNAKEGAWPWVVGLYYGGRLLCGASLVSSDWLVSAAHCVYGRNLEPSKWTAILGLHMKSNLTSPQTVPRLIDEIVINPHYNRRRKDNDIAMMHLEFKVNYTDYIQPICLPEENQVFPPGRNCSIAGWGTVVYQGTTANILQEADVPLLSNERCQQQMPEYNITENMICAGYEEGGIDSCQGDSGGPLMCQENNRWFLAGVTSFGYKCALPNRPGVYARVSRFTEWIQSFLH
T2 sequence (P98073 785-1019 limits assumed): as above
Chain of factor Xa (P00742 235-488 limits assumed): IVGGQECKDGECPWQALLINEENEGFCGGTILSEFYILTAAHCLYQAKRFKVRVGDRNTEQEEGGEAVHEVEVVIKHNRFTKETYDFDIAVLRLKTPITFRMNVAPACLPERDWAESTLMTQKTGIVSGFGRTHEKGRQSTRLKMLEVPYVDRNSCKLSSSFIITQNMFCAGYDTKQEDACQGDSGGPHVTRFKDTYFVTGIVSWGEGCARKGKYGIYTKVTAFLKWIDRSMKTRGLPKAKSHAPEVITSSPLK
Chain of factor Xa (P00742 41-179 partner limits assumed): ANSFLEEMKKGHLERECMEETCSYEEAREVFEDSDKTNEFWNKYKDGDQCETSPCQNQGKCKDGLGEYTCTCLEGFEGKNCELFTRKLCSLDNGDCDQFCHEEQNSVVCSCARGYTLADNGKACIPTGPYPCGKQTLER
Chain of plasma kallikrein (P03952 391-638 limits assumed, species assumed): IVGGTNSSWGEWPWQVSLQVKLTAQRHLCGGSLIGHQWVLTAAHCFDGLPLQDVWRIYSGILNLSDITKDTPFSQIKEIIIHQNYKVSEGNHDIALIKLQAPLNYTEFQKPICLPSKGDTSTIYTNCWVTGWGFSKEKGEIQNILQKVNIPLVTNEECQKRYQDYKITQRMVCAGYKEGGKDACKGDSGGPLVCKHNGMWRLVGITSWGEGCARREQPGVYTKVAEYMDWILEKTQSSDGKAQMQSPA
Chain of plasma kallikrein (P03952 20-390 partner limits assumed, species assumed): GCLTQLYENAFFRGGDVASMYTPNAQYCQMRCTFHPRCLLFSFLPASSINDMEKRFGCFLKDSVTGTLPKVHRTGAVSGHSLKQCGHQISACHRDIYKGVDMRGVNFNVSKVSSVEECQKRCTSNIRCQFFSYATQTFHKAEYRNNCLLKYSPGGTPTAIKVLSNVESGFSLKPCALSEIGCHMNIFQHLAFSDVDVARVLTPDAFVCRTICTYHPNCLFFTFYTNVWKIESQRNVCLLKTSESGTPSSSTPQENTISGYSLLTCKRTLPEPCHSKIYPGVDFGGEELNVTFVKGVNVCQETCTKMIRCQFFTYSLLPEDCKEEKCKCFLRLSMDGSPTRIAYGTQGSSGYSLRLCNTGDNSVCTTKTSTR
Chain of plasmin (P00747 581-810 limits assumed, species assumed): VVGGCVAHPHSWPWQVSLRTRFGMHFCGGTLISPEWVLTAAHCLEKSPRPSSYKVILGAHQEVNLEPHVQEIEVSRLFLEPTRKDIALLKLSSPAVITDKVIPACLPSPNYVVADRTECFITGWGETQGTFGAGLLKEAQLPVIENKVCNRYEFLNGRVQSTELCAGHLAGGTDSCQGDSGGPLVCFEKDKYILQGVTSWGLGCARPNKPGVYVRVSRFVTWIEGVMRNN
Chain of plasmin (P00747 97-580 partner limits assumed, species assumed): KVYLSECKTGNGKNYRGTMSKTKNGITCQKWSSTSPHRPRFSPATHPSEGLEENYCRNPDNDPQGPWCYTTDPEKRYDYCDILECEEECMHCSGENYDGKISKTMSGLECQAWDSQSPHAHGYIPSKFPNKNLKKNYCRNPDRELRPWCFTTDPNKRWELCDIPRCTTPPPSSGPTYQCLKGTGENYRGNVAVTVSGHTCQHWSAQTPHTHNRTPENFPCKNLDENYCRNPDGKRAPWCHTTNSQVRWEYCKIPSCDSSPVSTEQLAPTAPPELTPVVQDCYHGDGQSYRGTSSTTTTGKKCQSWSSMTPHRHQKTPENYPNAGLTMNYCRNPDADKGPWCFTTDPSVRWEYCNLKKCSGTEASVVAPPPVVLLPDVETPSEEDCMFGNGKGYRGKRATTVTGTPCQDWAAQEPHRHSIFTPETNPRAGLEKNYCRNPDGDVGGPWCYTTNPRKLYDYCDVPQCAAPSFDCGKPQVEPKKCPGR
Chain of DPP‐4 (P27487 whole entry, species assumed): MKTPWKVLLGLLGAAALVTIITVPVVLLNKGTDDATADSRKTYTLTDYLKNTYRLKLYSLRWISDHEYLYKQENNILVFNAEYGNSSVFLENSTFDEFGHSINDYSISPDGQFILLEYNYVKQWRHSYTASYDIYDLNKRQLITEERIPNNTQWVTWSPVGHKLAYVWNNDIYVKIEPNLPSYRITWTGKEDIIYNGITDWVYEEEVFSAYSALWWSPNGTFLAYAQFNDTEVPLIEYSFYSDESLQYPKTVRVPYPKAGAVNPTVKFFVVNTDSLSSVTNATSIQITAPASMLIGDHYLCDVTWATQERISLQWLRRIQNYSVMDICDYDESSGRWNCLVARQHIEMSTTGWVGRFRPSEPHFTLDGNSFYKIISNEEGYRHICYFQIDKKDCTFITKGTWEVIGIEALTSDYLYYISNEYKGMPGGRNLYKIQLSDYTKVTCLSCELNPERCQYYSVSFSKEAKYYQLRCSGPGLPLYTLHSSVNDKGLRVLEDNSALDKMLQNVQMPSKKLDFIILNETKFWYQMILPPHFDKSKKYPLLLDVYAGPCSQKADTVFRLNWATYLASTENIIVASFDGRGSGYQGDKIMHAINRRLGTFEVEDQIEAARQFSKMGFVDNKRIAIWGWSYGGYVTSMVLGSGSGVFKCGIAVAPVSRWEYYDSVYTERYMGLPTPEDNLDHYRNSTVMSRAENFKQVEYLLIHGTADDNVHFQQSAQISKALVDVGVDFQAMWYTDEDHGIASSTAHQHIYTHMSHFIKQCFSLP

One may read the IC50 as the concentration needed to halve the response being measured. Regarding `Cc1cc(OC(=O)c2ccc(NC(=N)N)cc2)no1` [T‐0046812], in [1], the “time dependence of enteropeptidase inhibition” value was “time‐dependent” and the “k inact/K I” value came to 5300 mol⁻¹ L⁻¹ s⁻¹. Also, in [2], the concentration for half-maximal inhibition (IC50) turned out to be 140 nM. Also, the chemical stability result in the data set “Chemical stability” (pH 1.2) was “unstable”. Besides, the chemical stability result in the data set “Chemical stability” (pH 6.8) is “unstable”.
“5FAM‐Abu‐Gly‐Asp‐Asp‐Asp‐Lys‐Ile‐Val‐Gly‐Gly‐Lys (CPQ2)‐Lys‐Lys‐NH2 [5FAM‐labeled substrate]”: in data set [3], the “K m value for enteropeptidase” value stood at 0.7 µM.
For orientation: AUC(0-inf) means the area under the concentration-time curve extrapolated to infinity. The low end stands for less exposure, the high end for more exposure. Usually half-life stands for the time needed for the level to fall by half in the phase considered. A low value points to fast loss. The Tmax is the time from dosing to the highest level. For orientation: koff means the rate constant with which the complex falls apart. For `N=C(N)Nc1ccc(C(=O)Oc2ccc3c(c2)OC[C@H]3CC(=O)N[C@@H](CC(=O)O)C(=O)O)cc1.O` [SCO‐792, N‐({(3S)‐6‐[(4‐carbamimidamidobenzoyl)oxy]‐2,3‐dihydro‐1‐benzofuran‐3‐yl}acetyl)‐L‐aspartic acid hydrate], the inhibition at 10 µM on thrombin was less than 50%. Further, the “inhibitory activity against chymotrypsin” value in the data set on chymotrypsin is less than 50%. On plasma kallikrein, the half-maximal inhibitory concentration (IC50) turned out to be 16 nM. Also, in data set [1], the “time dependence of enteropeptidase inhibition” value was “time‐dependent” and the “k inact/K I” value is given as 82 000 /mol/L s. This compound returned a BA in data set [4] (from AUC0‐24 h oral 10 mg/kg vs intravenous 0.2 mg/kg) of 0.4%. Also, in [4] (setting [7]), the AUC(0-inf) came out at 304 ± 30 ng·h/mL, the half-life was 5.2 ± 1.8 h and the AUC(0-t) amounted to 303 ± 23 ng·h/mL. The clearance in data set [4] (male, Sprague-Dawley, rat, in vivo, intravenous, 0.2 mg/kg, mean ± SD (n = 3), read-out: CLp (converted)) was 11.1 mL/min/kg. Besides, the Vd in data set [4] (male, Sprague-Dawley, rat, in vivo, intravenous, 0.2 mg/kg, mean ± SD (n = 3), read-out: Vss) amounted to 1.29 ± 0.299 L/kg. Also, in data set [4] (male, Sprague-Dawley, rat, in vivo, intravenous, 0.2 mg/kg, observed at 5 minutes, mean ± SD (n = 3), read-out: C max (C5 min)), the Cmax at 5 min came out at 564 ± 58 ng/mL. Further, in [4] (setting [8]), the AUC(0-inf) was determined as 49.8 ± 5.4 ng·h/mL, the Cmax is 6.6 ± 1.36 ng/mL, the Tmax amounted to 1.7 ± 0.6 h and the half-life is 4.4 ± 0.5 h. The AUC(0-t) in data set [4] (setting [8]) was 54.1 ± 7.5 ng·h/mL. Also, on factor Xa, the inhibition at 10 µM was less than 50%. The reversibility of inhibition entry in [5] is on record as “reversible”. In [5] (setting [9]), the “dissociation t 1/2” value was found to be 14 h and the koff is 1.31e-05 s⁻¹. Also, the “effect on plasma BCAA elevations induced by oral protein dosing” value in [6] is “effectively and dose‐dependently inhibited”. In addition, in data set [2], the IC50 came to 5.4 nM. At DPP‐4, the inhibition at 10 µM was less than 50%. Also, the inhibition at 10 µM on factor XIIa is less than 50%. Also, the IC50 against plasmin turned out to be 460 nM.
Regarding H-GDDDDK-βNA [GDDDDK‐βNA], the “K m value for enteropeptidase” value in data set [3] was determined as 230 µM.

Values taken from paper PMC6726858, “Discovery and characterization of a small‐molecule enteropeptidase inhibitor, SCO‐792” (Pharmacology Research & Perspectives, 2019).
